Structures are written as SMILES. Structures can show the parent of a compound that is named as a salt.

The experiment deals with T1, α2-Adrenoceptor (Homo sapiens, UniProt P08913).
T1 construct: from tissue; host or cells: human platelets (membranes)
T1 sequence (P08913 1-465): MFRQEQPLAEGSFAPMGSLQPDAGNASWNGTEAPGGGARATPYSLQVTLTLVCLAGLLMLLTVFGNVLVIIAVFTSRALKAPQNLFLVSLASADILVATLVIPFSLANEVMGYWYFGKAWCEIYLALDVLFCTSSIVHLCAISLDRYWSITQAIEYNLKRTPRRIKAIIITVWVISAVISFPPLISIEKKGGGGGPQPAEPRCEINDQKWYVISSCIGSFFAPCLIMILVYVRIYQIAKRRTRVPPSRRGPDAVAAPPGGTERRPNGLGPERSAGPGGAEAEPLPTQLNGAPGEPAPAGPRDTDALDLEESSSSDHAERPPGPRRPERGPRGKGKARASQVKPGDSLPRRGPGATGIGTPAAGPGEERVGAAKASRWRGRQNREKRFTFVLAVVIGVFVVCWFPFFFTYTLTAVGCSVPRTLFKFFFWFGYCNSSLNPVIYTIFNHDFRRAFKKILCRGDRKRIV
Briefly: α2-Adrenoceptor Binding ([3H] Rauwolscine, human platelet membranes). As to conditions: [3H] Rauwolscine 0.5-1.0 nM, 30 minutes at 30° C., read-out: Binding Affinity. Ki. As to the method: (A) α2-Adrenoceptor Binding
Human platelet membranes were incubated with [^3 H] Rauwolscine (0.5-1.0 nM) for 30 minutes at 30° C. with varying concentrates of the drug (0.1-10,000 nM). The binding assay was stopped by filtering and rinsing on GF/B glass fibre filters. Binding Affinity (Ki) was calculated using the Ching Prussoff equation.
Broadly, the Ki is a measure of affinity in units of concentration, obtained from inhibition or displacement. `c1ccc2c(c1)CN(CC1=NCCN1)C2` [Example 1, 2-[2H-(1,3-Dihydroisoindole)methyl]-4,5-dihydroimidazole]: the Ki came out at 5 nM.

`Clc1cccc2c1CN(CC1=NCCN1)C2` [Example 2, 2-[2H-(4-Chloro-1,3-dihydroisoindole)methyl]-4,5-dihydroimidazole]: the inhibitory constant (Ki) is 7 nM.

With `Clc1ccc2c(c1)CN(CC1=NCCN1)C2` [Example 3, 2-[2H-(5-Chloro-1,3-dihydroisoindole)methyl]-4,5-dihydroimidazole], the Ki was 13 nM.

Take `c1ccc2c(c1)CCN(CC1=NCCN1)C2` [Example 4, 2-[(1,2,3,4-Tetrahydroisoquinoline)methyl]-4,5-dihydroimidazole]: the Ki turned out to be 20 nM.

Regarding `Fc1ccc2c(c1)CN(CC1=NCCN1)C2` [Example 5, 2-[2H-(5-Fluoro-1,3-dihydroisoindole)methyl]-4,5-dihydroimidazole], the Ki came out at 164 nM.

Regarding `COc1ccc2c(c1)CN(CC1=NCCN1)C2` [Example 6, 2-[2H-(5-Methoxy-1,3-dihydroisoindole)methyl]-4,5 dihydroimidazole dihydrochloride], the Ki turned out to be 89 nM.

In the case of `Cc1ccc2c(c1)CN(CC1=NCCN1)C2` [Example 7, 2-[2H-(5-Methyl-1,3-dihydroisoindole)methyl]-4,5-dihydroimidazole], the Ki came to 22 nM.

These data come from patent US4863946A, “2-[2H-(1,3-dihydroisoindole)alkylene]-4,5-dihydroimidazoles and pharmaceutical compositions thereof” (Beecham Group plc, priority 1985, dated 1989).
